Reference: patent publication US8426345B2, “Method of drug design” (Alchemia Limited, priority 2005, dated 2013)

Biological target: T1, Human SST5 somatostatin receptor (Homo sapiens, UniProt P35346)
T1 construct: expressed in transfected cells; host or cells: HEK-293 EBNA cells (membranes)
Assay: Filter plate radio-ligand binding assay for SST5 receptor ([125I]SST-14 displacement)
Conditions: 3P library; for % SST5 radio-ligand binding displaced at conc 0.25: conc 0.25 μM; for % SST5 radio-ligand binding displaced at conc 1.0: conc 1.0 μM; for % SST5 radio-ligand binding displaced at conc 0.5: conc 0.5 μM; for % SST5 radio-ligand binding displaced at conc 10: conc 10 μM

T1 sequence (P35346 whole entry): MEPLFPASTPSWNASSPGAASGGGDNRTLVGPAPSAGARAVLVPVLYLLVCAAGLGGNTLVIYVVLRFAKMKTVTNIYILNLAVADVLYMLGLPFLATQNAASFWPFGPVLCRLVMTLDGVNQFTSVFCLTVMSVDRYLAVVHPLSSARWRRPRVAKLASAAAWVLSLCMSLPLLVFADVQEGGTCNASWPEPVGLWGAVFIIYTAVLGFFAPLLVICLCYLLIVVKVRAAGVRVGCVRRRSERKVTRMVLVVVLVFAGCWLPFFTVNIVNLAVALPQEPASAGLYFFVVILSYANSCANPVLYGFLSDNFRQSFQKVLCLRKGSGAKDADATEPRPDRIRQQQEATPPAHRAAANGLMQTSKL

| SMILES | % SST5 radio-ligand binding displaced at conc 0.25 | % SST5 radio-ligand binding displaced at conc 1.0 | further results |
| --- | --- | --- | --- |
| NCCC(=O)NC1C(OCc2ccc3ccccc3c2)OC(COCc2ccc3ccccc3c2)C(O)C1OCc1ccc2ccccc2c1 (stereo not shown) [Compound 79] | − (% SST5 radio-ligand binding displaced at cone (μM) −<40%) | ++ (% SST5 radio-ligand binding displaced at conc (μM) >60%) | – |
| NCCC(=O)NC1C(OCc2ccc3ccccc3c2)OC(COCc2ccc3ccccc3c2)C(O)C1OCc1ccc2ccccc2c1 (stereo not shown) [Compound 80] | − (% SST5 radio-ligand binding displaced at cone (μM) −<40%) | ++ (% SST5 radio-ligand binding displaced at conc (μM) >60%) | – |
| NCCC(=O)NC1C(OCc2ccc3ccccc3c2)OC(COCc2ccccc2)C(O)C1OCc1ccc2ccccc2c1 (stereo not shown) [Compound 81] | − (% SST5 radio-ligand binding displaced at cone (μM) −<40%) | ++ (% SST5 radio-ligand binding displaced at conc (μM) >60%) | – |
| NCCC(=O)NC1C(OCc2ccc3ccccc3c2)OC(COCc2ccccc2)C(O)C1OCc1ccc2ccccc2c1 (stereo not shown) [Compound 82] | + (% SST5 radio-ligand binding displaced at cone (μM) 60>+>40%) | ++ (% SST5 radio-ligand binding displaced at conc (μM) >60%) | – |
| NCCC(=O)NC1C(OCc2ccc3ccccc3c2)OC(COCc2ccc(Cl)cc2)C(O)C1OCc1ccc2ccccc2c1 (stereo not shown) [Compound 83] | − (% SST5 radio-ligand binding displaced at cone (μM) −<40%) | ++ (% SST5 radio-ligand binding displaced at conc (μM) >60%) | – |
| NCCC(=O)NC1C(OCc2ccc3ccccc3c2)OC(COCc2ccc(Cl)cc2)C(O)C1OCc1ccc2ccccc2c1 (stereo not shown) [Compound 84] | − (% SST5 radio-ligand binding displaced at cone (μM) −<40%) | ++ (% SST5 radio-ligand binding displaced at conc (μM) >60%) | – |
| COC[C@H]1O[C@@H](OCc2ccc3ccccc3c2)[C@H](NC(=O)CCN)[C@H](OCc2ccc3ccccc3c2)[C@@H]1O [Compound 85] | – | – | % SST5 radio-ligand binding displaced at conc 0.5: ++ (% SST5 radio-ligand binding displaced at conc (μM) >60%); % SST5 radio-ligand binding displaced at conc 10: ++ (% SST5 radio-ligand binding displaced at conc (μM) >60%) |
| COC[C@H]1O[C@H](OCc2ccc3ccccc3c2)[C@H](NC(=O)CCN)[C@H](OCc2ccc3ccccc3c2)[C@@H]1O [Compound 86] | – | – | % SST5 radio-ligand binding displaced at conc 0.5: ++ (% SST5 radio-ligand binding displaced at conc (μM) >60%); % SST5 radio-ligand binding displaced at conc 10: ++ (% SST5 radio-ligand binding displaced at conc (μM) >60%) |
| COC[C@H]1O[C@H](OCc2ccc3ccccc3c2)[C@H](NC(=O)CCN)[C@@H](OCc2ccc3ccccc3c2)[C@@H]1O [Compound 98] | + (% SST5 radio-ligand binding displaced at cone (μM) 60>+>40%) | ++ (% SST5 radio-ligand binding displaced at conc (μM) >60%) | – |
| COC[C@H]1O[C@H](OCc2ccc3ccccc3c2)[C@H](NC(=O)C(C)CN)[C@@H](OCc2ccc3ccccc3c2)[C@@H]1O (stereo partly shown) [Compound 99] | − (% SST5 radio-ligand binding displaced at cone (μM) −<40%) | + (% SST5 radio-ligand binding displaced at cone (μM) 60>+>40%) | – |
| COC[C@H]1O[C@H](OCc2ccc3ccccc3c2)[C@H](NC(=O)CC(C)N)[C@@H](OCc2ccc3ccccc3c2)[C@@H]1O (stereo partly shown) [Compound 100] | + (% SST5 radio-ligand binding displaced at cone (μM) 60>+>40%) | ++ (% SST5 radio-ligand binding displaced at conc (μM) >60%) | – |
| COC[C@H]1O[C@H](OCc2ccc3ccccc3c2)[C@H](NC(=O)C2CNC2)[C@@H](OCc2ccc3ccccc3c2)[C@@H]1O [Compound 101] | − (% SST5 radio-ligand binding displaced at cone (μM) −<40%) | + (% SST5 radio-ligand binding displaced at cone (μM) 60>+>40%) | – |
| COC[C@H]1O[C@H](OCc2ccc3ccccc3c2)[C@H](NC(=O)CCN2CCCCC2)[C@@H](OCc2ccc3ccccc3c2)[C@@H]1O [Compound 102] | − (% SST5 radio-ligand binding displaced at cone (μM) −<40%) | − (% SST5 radio-ligand binding displaced at cone (μM) −<40%) | – |
| COC[C@H]1O[C@H](OCc2ccc3ccccc3c2)[C@H](NC(=O)C2CCCNC2)[C@@H](OCc2ccc3ccccc3c2)[C@@H]1O (stereo partly shown) [Compound 103] | + (% SST5 radio-ligand binding displaced at cone (μM) 60>+>40%) | ++ (% SST5 radio-ligand binding displaced at conc (μM) >60%) | – |
| COCC1OC(OCc2ccc3ccccc3c2)C(NC(=O)C2CCCCC2N)C(OCc2ccc3ccccc3c2)C1O (stereo not shown) [Compound 104] | − (% SST5 radio-ligand binding displaced at cone (μM) −<40%) | − (% SST5 radio-ligand binding displaced at cone (μM) −<40%) | – |
| COCC1OC(OCc2ccc3ccccc3c2)C(NC(=O)C2CCCCC2N)C(OCc2ccc3ccccc3c2)C1O (stereo not shown) [Compound 105] | − (% SST5 radio-ligand binding displaced at cone (μM) −<40%) | − (% SST5 radio-ligand binding displaced at cone (μM) −<40%) | – |
| COC[C@H]1O[C@H](OCc2ccc3ccccc3c2)[C@H](NC(=O)CCN(C)C)[C@@H](OCc2ccc3ccccc3c2)[C@@H]1O [Compound 106] | − (% SST5 radio-ligand binding displaced at cone (μM) −<40%) | − (% SST5 radio-ligand binding displaced at cone (μM) −<40%) | – |
| COC[C@H]1O[C@H](OCc2ccc3ccccc3c2)[C@H](NC(=O)CCN)[C@@H](OCc2cccc(Cl)c2)[C@@H]1O [Compound 107] | ++ (% SST5 radio-ligand binding displaced at conc (μM) >60%) | ++ (% SST5 radio-ligand binding displaced at conc (μM) >60%) | – |
| COC[C@H]1O[C@H](OCc2ccc3ccccc3c2)[C@H](NC(=O)CCN)[C@@H](OCc2cc(Cl)ccc2Cl)[C@@H]1O [Compound 108] | + (% SST5 radio-ligand binding displaced at cone (μM) 60>+>40%) | ++ (% SST5 radio-ligand binding displaced at conc (μM) >60%) | – |
| COC[C@H]1O[C@H](OCc2ccc3ccccc3c2)[C@H](NC(=O)CCN)[C@@H](OCc2ccccc2Cl)[C@@H]1O [Compound 109] | − (% SST5 radio-ligand binding displaced at cone (μM) −<40%) | ++ (% SST5 radio-ligand binding displaced at conc (μM) >60%) | – |
| COC[C@H]1O[C@H](OCc2ccc3ccccc3c2)[C@H](NC(=O)CCN)[C@@H](OCc2cccc3cccnc23)[C@@H]1O [Compound 110] | ++ (% SST5 radio-ligand binding displaced at conc (μM) >60%) | ++ (% SST5 radio-ligand binding displaced at conc (μM) >60%) | – |
| COC[C@H]1O[C@H](OCc2ccc3ccccc3c2)[C@H](NC(=O)CCN)[C@@H](OCc2nc3ccccc3s2)[C@@H]1O [Compound 111] | − (% SST5 radio-ligand binding displaced at cone (μM) −<40%) | − (% SST5 radio-ligand binding displaced at cone (μM) −<40%) | – |
| COC[C@H]1O[C@H](OCc2ccc3ccccc3c2)[C@H](NC(=O)CCN)[C@@H](OCc2nccc3ccccc23)[C@@H]1O [Compound 112] | + (% SST5 radio-ligand binding displaced at cone (μM) 60>+>40%) | ++ (% SST5 radio-ligand binding displaced at conc (μM) >60%) | – |
| COC[C@H]1O[C@H](OCc2ccc3ccccc3c2)[C@H](NC(=O)CCN)[C@@H](OCc2ccc(Cl)c(Cl)c2)[C@@H]1O [Compound 113] | ++ (% SST5 radio-ligand binding displaced at conc (μM) >60%) | ++ (% SST5 radio-ligand binding displaced at conc (μM) >60%) | – |
| COC[C@H]1O[C@H](OCc2ccc3ccccc3c2)[C@H](NC(=O)CCN)[C@@H](OCc2cccc3ccccc23)[C@@H]1O [Compound 114] | ++ (% SST5 radio-ligand binding displaced at conc (μM) >60%) | ++ (% SST5 radio-ligand binding displaced at conc (μM) >60%) | – |
| COC[C@H]1O[C@H](OCc2ccc3ccccc3c2)[C@H](NC(=O)CCN)[C@@H](OCc2ccc(Cl)cc2Cl)[C@@H]1O [Compound 115] | + (% SST5 radio-ligand binding displaced at cone (μM) 60>+>40%) | ++ (% SST5 radio-ligand binding displaced at conc (μM) >60%) | – |
| COC[C@H]1O[C@H](OCc2ccc3ccccc3c2)[C@H](NC(=O)CCN)[C@@H](OCc2ccc3ccccc3n2)[C@@H]1O [Compound 116] | + (% SST5 radio-ligand binding displaced at cone (μM) 60>+>40%) | ++ (% SST5 radio-ligand binding displaced at conc (μM) >60%) | – |
| COC[C@H]1O[C@H](OCc2ccc3ccccc3c2)[C@H](NC(=O)CCN)[C@@H](OCc2cccc(Cl)c2Cl)[C@@H]1O [Compound 117] | ++ (% SST5 radio-ligand binding displaced at conc (μM) >60%) | ++ (% SST5 radio-ligand binding displaced at conc (μM) >60%) | – |
| COC[C@H]1O[C@H](OCc2ccc3ccccc3c2)[C@H](NC(=O)CCN)[C@@H](OCc2ccc(Oc3ccccc3)cc2)[C@@H]1O [Compound 118] | ++ (% SST5 radio-ligand binding displaced at conc (μM) >60%) | ++ (% SST5 radio-ligand binding displaced at conc (μM) >60%) | – |
| COC[C@H]1O[C@H](OCc2ccc3ccccc3c2)[C@H](NC(=O)CCCN)[C@@H](OC)[C@@H]1O [Compound 119] | – | – | % SST5 radio-ligand binding displaced at conc 50 (conc 50 μM): − (% SST5 radio-ligand binding displaced at cone (μM) −<40%); % SST5 radio-ligand binding displaced at conc 250 (conc 250 μM): + (% SST5 radio-ligand binding displaced at cone (μM) 60>+>40%); % SST5 radio-ligand binding displaced at conc 500 (conc 500 μM): ++ (% SST5 radio-ligand binding displaced at conc (μM) >60%) |
